Patent US7241795B2, “Synthesis and antimicrobial activity of novel dicationic “reversed amidines”” (The University of North Carolina at Chapel Hill, priority 2000, dated 2007)
Values after ≈ are worked out from the molar mass of the structure shown. Like-named read-outs stand apart in the source and are kept apart here.

Experiments:
[1] = system: Candida albicans; assay: Antifungal broth macrodilution susceptibility testing (MIC/MFC), yeast; type: cell-based; settings: for MIC80 / MIC / MFC: Candida albicans; for MIC80: 80% of inoculum inhibited
[2] = system: poly dA•dT; assay: DNA thermal melting (ΔTm); type: binding
[3] = system: Aspergillus flavus; assay: Expanded fungus panel, broth macrodilution (MIC/MFC), mold; type: cell-based; settings: for MIC: Aspergillus flavus, 100% of inoculum inhibited
[4] = system: d(CGCGAATTCGCG)2; assay: DNA thermal melting (ΔTm); type: binding; settings: oligo = d(CGCGAATTCGCG)2
[5] = system: Rhizopus arrhizus; assay: Expanded fungus panel, broth macrodilution (MIC/MFC), mold; type: cell-based
[6] = system: Fusarium solani; assay: as above; type: cell-based
[7] = system: M. tuberculosis H37Rv; assay: Microplate Alamar Blue Assay (MABA) in BACTEC 12B medium; type: cell-based, Mycobacterium tuberculosis; settings: Mycobacterium tuberculosis, H37RV; lowest concentration effecting ≧90% reduction of fluorescence; read-out: MTb MIC
[8] = system: Aspergillus fumigatus; assay: Antifungal broth macrodilution susceptibility testing (MIC/MFC), mold; type: cell-based; settings: for MIC80: 80% of inoculum inhibited
[9] = system: Crytococcus neoformans; assay: Expanded fungus panel, broth macrodilution (MIC/MFC), yeast; type: cell-based; settings: Cryptococcus neoformans, Crytococcus neoformans isolate H99
[10] = system: other pathogenic fungi; assay: Expanded fungus panel, overall; type: cell-based
Protocol: Antifungal Test Organisms. The fungi used in this study for all the compounds in Table 1 included two reference strains C. albicans A39 and Aspergillus fumigatus (strain 168.95).
Medium. Antifungal susceptibility testing was performed with RPMI 1640 medium (Sigma Chemical Co., St. Louis, Mo.) with glutamine, but without sodium bicarbonate and buffered at pH 7.0 with 0.165 M morpholinopropanesulfonic acid.
Antifungal In Vitro Susceptibility Testing. Experiments for determination of MICs of yeasts were performed by the broth macrodilution method according to the recommendations of the National Committee for Clinical Laboratory Standards. See National Committee for Clinical Laboratory Standards. Reference method for broth dilution susceptibility testing of yeasts Document M27-T. Tentative standard, National Committee for Clinical Laboratory Standards, Wayne, Pa., 1995). […] Briefly, this method specifies the use of an inoculum grown at 35° C. and adjusted to a concentration of 0.5×10^3 to 2.5×10^3 CFU/ml, incubation of the culture at 35° C., and reading at 48 h for all yeasts except for C. neoformans, for which the results are interpreted at 72 h. […]
The minimum fungicidal concentration (MFC) was determined by plating 100 μl aliquots from tubes showing complete inhibition of growth on Sabouraud agar plates. The lowest drug concentration that yielded three or fewer colonies was recorded as the MFC. […]

[11] = reference strain C. albicans A39, read-out: C. albicans MFC
[12] = reference strain C. albicans A39, read-out: C. albicans MIC
[13] = Aspergillus flavus isolate 107.96
[14] = Aspergillus flavus isolate 141.88
[15] = Aspergillus fumigatus, strain 168.95, read-out: Aspergillus fumigatus MIC

## Cc1ccc(N=Nc2ccc(-c3ccc(-c4ccc(N=Nc5ccc(C)cn5)cc4C)o3)c(C)c2)nc1 [Compound 6j, 2,5-Bis[2-methyl-4-(5-methyl-2-pyridylimino)aminophenyl]furan]
[1]
  activity against C. albicans, in words: quite effective
[1]; Candida albicans isolate 116.98
  MIC80: 1.56 µg/mL (≈ 3.21 µM)
[1]; Candida albicans isolate 116.98, 100% of inoculum inhibited, read-out: MIC 100%
  MIC: 1.56 µg/mL (≈ 3.21 µM)
[1]; Candida albicans isolate 116.98, read-out: MFC
  MFC: > 100 µg/mL
[1]; Candida albicans isolate 117.00
  MIC80: 0.78 µg/mL (≈ 1.6 µM)
[1]; Candida albicans isolate 117.00, 100% of inoculum inhibited, read-out: MIC 100%
  MIC: 3.12 µg/mL (≈ 6.41 µM)
[1]; Candida albicans isolate 117.00, read-out: MFC
  MFC: 25 µg/mL (≈ 51.4 µM)
[1]; Candida albicans isolate 126.97
  MIC80: 1.56 µg/mL (≈ 3.21 µM)
[1]; Candida albicans isolate 126.97, 100% of inoculum inhibited, read-out: MIC 100%
  MIC: 3.12 µg/mL (≈ 6.41 µM)
[1]; Candida albicans isolate 126.97, read-out: MFC
  MFC: 3.12 µg/mL (≈ 6.41 µM)
[1]; Candida albicans isolate 149.97
  MIC80: 0.78 µg/mL (≈ 1.6 µM)
[1]; Candida albicans isolate 149.97, 100% of inoculum inhibited, read-out: MIC 100%
  MIC: 1.56 µg/mL (≈ 3.21 µM)
[1]; Candida albicans isolate 149.97, read-out: MFC
  MFC: 6.25 µg/mL (≈ 12.8 µM)
[1]; Candida albicans isolate 156.97
  MIC80: 1.56 µg/mL (≈ 3.21 µM)
[1]; Candida albicans isolate 156.97, 100% of inoculum inhibited, read-out: MIC 100%
  MIC: 3.15 µg/mL (≈ 6.47 µM)
[1]; Candida albicans isolate 156.97, read-out: MFC
  MFC: > 100 µg/mL
[1]; Candida albicans isolate 159.95
  MIC80: 0.79 µg/mL (≈ 1.62 µM)
[1]; Candida albicans isolate 159.95, 100% of inoculum inhibited, read-out: MIC 100%
  MIC: 1.58 µg/mL (≈ 3.25 µM)
[1]; Candida albicans isolate 159.95, read-out: MFC
  MFC: 3.12 µg/mL (≈ 6.41 µM)
[1]; Candida albicans isolate A39
  MIC80: 1.56 µg/mL (≈ 3.21 µM)
[1]; Candida albicans isolate A39, 100% of inoculum inhibited, read-out: MIC 100%
  MIC: 1.56 µg/mL (≈ 3.21 µM)
[1]; Candida albicans isolate A39, expanded panel, read-out: MFC
  MFC: 25 µg/mL (≈ 51.4 µM)
[1]; read-out: C. albicans MIC
  MIC: ≤ 1 µg/mL
[1]; [11]
  MFC: 10 µg/mL (≈ 20.6 µM)
[1]; [12]
  MIC: ≤ 2 µg/mL
[2]
  DNA Affinities ΔTm (AT): 24.3
[3]
  activity versus Aspergillus flavus, in words: less effective
[3]; [13]
  MFC: >100 µg/mL
  MIC: 50 µg/mL (≈ 103 µM)
[3]; Aspergillus flavus isolate 107.96, 80% of inoculum inhibited
  MIC 80%: 3.12 µg/mL (≈ 6.41 µM)
[3]; [14]
  MFC: >100 µg/mL
  MIC: 50 µg/mL (≈ 103 µM)
[3]; Aspergillus flavus isolate 141.88, 80% of inoculum inhibited
  MIC 80%: 3.12 µg/mL (≈ 6.41 µM)
[3]; Aspergillus flavus isolate 194.99, 80% of inoculum inhibited
  MIC80: 3.12 µg/mL (≈ 6.41 µM)
[3]; Aspergillus flavus isolate 194.99, read-out: MFC
  MFC: > 100 µg/mL
[3]; Aspergillus flavus isolate 194.99
  MIC: 6.25 µg/mL (≈ 12.8 µM)
[4]
  DNA Affinities ΔTm (oligo): 10.8
[5]
  activity versus Rhizopus arrhizus, in words: good fungicidal activity
[5]; Rhizopus arrhizus isolate 117.89
  MFC: 1.56 µg/mL (≈ 3.21 µM)
[5]; Rhizopus arrhizus isolate 117.89, 80% of inoculum inhibited
  MIC80: 0.78 µg/mL (≈ 1.6 µM)
[5]; Rhizopus arrhizus isolate 117.89, 100% of inoculum inhibited
  MIC: 1.56 µg/mL (≈ 3.21 µM)
[6]
  activity against Fusarium solani, in words: not very effective
[6]; Fusarium solani isolate 152.89
  MFC: 50 µg/mL (≈ 103 µM)
[6]; Fusarium solani isolate 152.89, 80% of inoculum inhibited
  MIC80: 3.12 µg/mL (≈ 6.41 µM)
[6]; Fusarium solani isolate 152.89, 100% of inoculum inhibited
  MIC: 50 µg/mL (≈ 103 µM)
[7]
  MIC: 1 to 2 µg/mL (≈ 2.06 to 4.11 µM)
[8]
  activity against Aspergillus fumigatus, in words: less effective
[8]; Aspergillus fumigatus isolate 119.00, read-out: MFC
  MFC: > 100 µg/mL
[8]; Aspergillus fumigatus isolate 153.90
  MFC: >100 µg/mL
[8]; Aspergillus fumigatus isolate 165.86
  MFC: >100 µg/mL
[8]; Aspergillus fumigatus isolate 168.95, expanded panel
  MFC: >100 µg/mL
[8]; Aspergillus fumigatus isolate 182.99
  MFC: >100 µg/mL
[8]; Aspergillus fumigatus, Aspergillus fumigatus isolate 119.00
  MIC80: 3.12 µg/mL (≈ 6.41 µM)
[8]; Aspergillus fumigatus, Aspergillus fumigatus isolate 119.00, 100% of inoculum inhibited, read-out: MIC 100%
  MIC: 50 µg/mL (≈ 103 µM)
[8]; Aspergillus fumigatus, Aspergillus fumigatus isolate 153.90
  MIC80: 3.12 µg/mL (≈ 6.41 µM)
[8]; Aspergillus fumigatus, Aspergillus fumigatus isolate 153.90, 100% of inoculum inhibited, read-out: MIC 100%
  MIC: 50 µg/mL (≈ 103 µM)
[8]; Aspergillus fumigatus, Aspergillus fumigatus isolate 165.86
  MIC80: 50 µg/mL (≈ 103 µM)
[8]; Aspergillus fumigatus, Aspergillus fumigatus isolate 165.86, 100% of inoculum inhibited, read-out: MIC 100%
  MIC: 50 µg/mL (≈ 103 µM)
[8]; Aspergillus fumigatus, Aspergillus fumigatus isolate 168.95
  MIC80: 50 µg/mL (≈ 103 µM)
[8]; Aspergillus fumigatus, Aspergillus fumigatus isolate 168.95, 100% of inoculum inhibited, read-out: MIC 100%
  MIC: 50 µg/mL (≈ 103 µM)
[8]; Aspergillus fumigatus, Aspergillus fumigatus isolate 182.99
  MIC80: 3.12 µg/mL (≈ 6.41 µM)
[8]; Aspergillus fumigatus, Aspergillus fumigatus isolate 182.99, 100% of inoculum inhibited, read-out: MIC 100%
  MIC: 50 µg/mL (≈ 103 µM)
[8]; [15]
  MIC: 10 µg/mL (≈ 20.6 µM)
[9]
  MFC: > 100 µg/mL
[9]; 80% of inoculum inhibited
  MIC80: 1.56 µg/mL (≈ 3.21 µM)
[9]; 100% of inoculum inhibited
  MIC: 1.56 µg/mL (≈ 3.21 µM)

## COc1cc(N=Nc2ccccn2)ccc1-c1ccc(-c2ccc(N=Nc3ccccn3)cc2OC)o1 [Compound 6k, 2,5-Bis[2-methoxy-4-(2-pyridylimino)aminophenyl]furan]
[1]
  activity against C. albicans, in words: fungicidal
[1]; read-out: C. albicans MIC
  MIC: ≤ 1 µg/mL
[1]; [11]
  MFC: ≤ 1 µg/mL
[1]; [12]
  MIC: ≤ 2 µg/mL
[2]
  DNA Affinities ΔTm (AT): 19.0
[4]
  DNA Affinities ΔTm (oligo): 7.8
[7]
  MIC: 1 to 2 µg/mL (≈ 2.04 to 4.08 µM)
[8]
  activity against Aspergillus fumigatus, in words: fungicidal
[8]; Aspergillus fumigatus, read-out: Aspergillus fumigatus MIC
  MIC: ≤ 1 µg/mL
[8]; Aspergillus fumigatus, strain 168.95, read-out: Aspergillus fumigatus MFC
  MFC: ≤ 1 µg/mL
[8]; [15]
  MIC: 1 µg/mL (≈ 2.04 µM)
[10]
  activity in the expanded fungus panel, in words: did not show significant activity
